Read-outs that look alike come from different tables or passages of the source. Where no end group is shown, it is not given here.
Legend:
[1] = tested on: S. aureus (ATCC 29213); experiment: MIC, standard microtiter dilution (CLSI); type: cell-based; details: broth microdilution (CLSI), CAMHB, 37 °C, 24 h
Outline: (§1)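 Broth microdilution per CLSI: overnight cultures diluted in cation-adjusted Mueller Hinton Broth to 10^6 CFU/mL, mixed with 2-fold serial peptide dilutions, incubated 37 °C for 24 h. MIC = lowest peptide concentration inhibiting growth. Three independent assays in triplicate.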

[2] = tested on: E. coli (ATCC 25922); details: broth microdilution (CLSI), CAMHB, 37 °C, 24 h
Outline: as §1

[3] = tested on: MRSA (ATCC BAA-1556); details: broth microdilution (CLSI), CAMHB, 37 °C, 24 h
Outline: as §1

[4] = tested on: P. aeruginosa (ATCC 27883); experiment: MIC, standard microtiter dilution (CLSI); type: cell-based, Pseudomonas aeruginosa; details: broth microdilution (CLSI), CAMHB, 37 °C, 24 h
Outline: as §1

[5] = tested on: K. pneumoniae (ATCCBAA-1705); experiment: MIC, standard microtiter dilution (CLSI); type: cell-based, Klebsiella pneumoniae; details: broth microdilution (CLSI), CAMHB, 37 °C, 24 h
Outline: as §1

[6] = tested on: human red blood cells (hRBCs); experiment: Hemolytic assay; type: cell-based; details: 2 h, 37 °C
Outline: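 Percent hemolysis uses PBS as 0% and 1% Triton X-100 as 100% references, from supernatant absorbance at 567 nm. Red cells (4% in PBS, equal volume) exposed 2 h at 37 °C without agitation to 2-fold serially diluted peptide.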

[7] = Relative hydrophobicity as RP-HPLC retention time; type: physicochemical; details: chromatographic, Phenomenex Luna C18 4 μm 150 × 4.6 mm, linear AB gradient 1% acetonitrile/min, 0.3 mL/min, A water 0.1% TFA, B acetonitrile 0.1% TFA, 25 °C
Description: The purity analysis of the peptides was conducted on a RP-HPLC system (Shimadzu; LC-20ADXR) by using a Phenomenex (Luna) analytical C18 column (4 μm, 150 × 4.6 mm). The mass of the purified peptides was determined in the positive-ion mode using Q-TOF LC/MS (Compass Hystar 4.1, Bruker, USA). The purity (>95%) and mass data of all the synthesized peptides are provided in the Supporting Information.
8. Comparative Hydrophobicity analysis
The purity of all synthesized peptides was determined using reverse phase analytical HPLC
(Shimadzu; LC-20ADXR). Below mentioned are the conditions used to conduct the purity
Column: Phenomenex (Luna), 4 um, C18, 150 × 4.6 mm
Mobile Phase: Buffer A-Water containing 0.1% TFA,
Buffer B-Acetonitrile containing 0.1% TFA
Figure S52. HPLC chromatogram of 6a.
(1 picture or pasted object on this page, not shown here)

[8] = CD spectroscopy, helicity; type: physicochemical; set-up: key to Δ[θ]222 induced by TFE / Δ[θ]222 induced by Liposomes: mean residue molar ellipticity, mdeg cm2/(dmol × res); details: for [θ]222 mean residue molar ellipticity, TFE / [θ]222 mean residue molar ellipticity, Liposomes / [θ]222 mean residue molar ellipticity, PBS: CD at 222 nm, 25 °C; for [θ]222 mean residue molar ellipticity, TFE: aqueous buffer containing 50% TFE; for [θ]222 mean residue molar ellipticity, Liposomes / Δ[θ]222 induced by Liposomes: bacterial membrane mimicking liposomes; for [θ]222 mean residue molar ellipticity, Liposomes: peptide:lipid molar ratio 1:1.05; for [θ]222 mean residue molar ellipticity, PBS: phosphate buffer saline pH 7.0; for Δ[θ]222 induced by TFE / Δ[θ]222 induced by Liposomes: difference to PBS; for Δ[θ]222 induced by TFE: 50% TFE; for % of helicity induced by TFE: increase in molar ellipticity at 222 nm in the presence of 50% TFE; for % of helicity induced by Liposomes: increase in molar ellipticity at 222 nm in the presence of liposomes;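 as to % of helicity induced by Liposomes: share of the total helicity with liposomes gained over the same peptide in PBS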;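 as to % of helicity induced by TFE: share of the total helicity in TFE gained over the same peptide in PBS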
Description: The CD spectra of peptides were recorded using a Jasco J-1500 CD spectrophotometer (Jasco, Easton, MD) at 25 °C with a 1 mm path length cell. Wavelengths from 190 to 260 nm were scanned with 1.0 nm step resolution, 100 nm/min speed, 0.4 s response time, and 1 nm bandwidth. CD spectra of the peptides were collected and averaged over three scans in 10 mM sodium phosphate buffer (pH 7.2), helix-inducing solvent 50% TFE (v/v), and bacterial mimic liposomes (75 μM lipid). Spectra were corrected by subtracting a baseline spectrum containing only buffer or 50% TFE or liposomes. The mean residue molar ellipticity was calculated using the formula [drawing 3] where Ab222 is the absorbance observed at 222 nm, MRW is the mean residue molecular weight, C is the concentration in mg/mL, and L is the path length.
Table S1. RP-HPLC retention times and CD spectroscopy analysis of the selected peptides Peptide tR (min)a [θ]222b Δ[θ]222 induced by % of helicity inducedc by PBS TFE Liposomes TFE Liposomes TFE Liposomes […]
atR (min) denotes the retention time at 25°C by RP-HPLC. bThe mean residue molar ellipticity [θ] 222 (mdeg cm2/(dmol × res)) at 222 nm was measured at 25 °C in phosphate buffer saline (PBS, pH 7.0), in aqueous buﬀer containing 50% TFE (TFE), or in presence of bacterial membrane mimicking liposomes (peptide:lipid […]
c% helix induced is the increase in the molar ellipticity at 222 nm (in percentage) of a peptide in the presence of TFE or liposomes.

[9] = 10^6 CFU/mL, highest MIC of three independent experiments in triplicate
[10] = hRBC suspension 4% in PBS, hemoglobin release at 567 nm, 1% Triton X-100 = 100%
[11] = value in parentheses (μM), hRBC 4% in PBS, 567 nm

| Substance | MIC, S. aureus (ATCC 29213) [1, 9] [µg/mL] | MIC, S. aureus (ATCC 29213) ([1]; value in parentheses (μM)) [µM] | MIC, E. coli (ATCC 25922) [2, 9] [µg/mL] | MIC, E. coli (ATCC 25922) ([2]; value in parentheses (μM)) [µM] | MIC, MRSA (ATCC BAA-1556) [3, 9] [µg/mL] | MIC, MRSA (ATCC BAA-1556) ([3]; value in parentheses (μM)) [µM] | MIC, P. aeruginosa (ATCC 27883) [4, 9] [µg/mL] | MIC, P. aeruginosa (ATCC 27883) ([4]; value in parentheses (μM)) [µM] | MIC, K. pneumoniae (ATCCBAA-1705) [5, 9] [µg/mL] | MIC, K. pneumoniae (ATCCBAA-1705) ([5]; value in parentheses (μM)) [µM] | HC50 (concentration at which 50% hemolysis was observed) [6, 10] [µg/mL] | HC50 (concentration at which 50% hemolysis was observed) [6, 11] [µM] | tR, RP-HPLC retention time (measure of overall hydrophobicity) [7] [min] | [θ]222 mean residue molar ellipticity, TFE [8] | [θ]222 mean residue molar ellipticity, Liposomes [8] | [θ]222 mean residue molar ellipticity, PBS [8] | Δ[θ]222 induced by TFE [8] | Δ[θ]222 induced by Liposomes [8] | % of helicity induced by TFE [8] [%] | % of helicity induced by Liposomes [8] [%] |
| --- | --- | --- | --- | --- | --- | --- | --- | --- | --- | --- | --- | --- | --- | --- | --- | --- | --- | --- | --- | --- |
| Ac-KWAKKWAKWWKK-NH2 [6d] | 50 | 29.15 | 100 | 58.30 | 100 | 58.30 | 100 | 58.30 | 100 | 58.30 | 345 | 201.15 | 32.81 | -18432 mdeg cm2/(dmol × res) | -24274 mdeg cm2/(dmol × res) | -13464 mdeg cm2/(dmol × res) | -4968 | -10810 | 26.95 | 44.53 |
| Ac-KWIKKWIKWWKK-NH2 [7d] | 6.2 | 3.45 | 12.5 | 6.95 | 6.2 | 3.45 | 12.5 | 6.95 | 25 | 13.89 | 160 | 88.92 | 38.75 | -11272 mdeg cm2/(dmol × res) | -19755 mdeg cm2/(dmol × res) | -3826 mdeg cm2/(dmol × res) | -7446 | -15929 | 66.05 | 80.63 |
| Ac-KWLKKWLKWWKK-NH2 [8d] | 3.1 | 1.72 | 6.2 | 3.45 | 6.2 | 3.45 | 6.2 | 3.45 | 12.5 | 6.95 | 145 | 80.59 | 39.25 | -16759 mdeg cm2/(dmol × res) | -24786 mdeg cm2/(dmol × res) | -10222 mdeg cm2/(dmol × res) | -6537 | -14564 | 39.00 | 58.75 |
| Ac-RWARRWARWWRR-NH2 [6c] | 50 | 26.55 | 100 | 53.10 | 50 | 26.55 | 100 | 53.10 | > 100 | > 53.10 | 110 | 58.41 | 34.61 | -18280 mdeg cm2/(dmol × res) | -20250 mdeg cm2/(dmol × res) | -10947 mdeg cm2/(dmol × res) | -7332 | -9303 | 40.11 | 45.93 |
| Ac-RWIRRWIRWWRR-NH2 [7c] | 6.2 | 3.15 | 12.5 | 6.35 | 6.2 | 3.15 | 6.2 | 3.15 | 25 | 12.70 | 40 | 20.33 | 40.63 | -10279 mdeg cm2/(dmol × res) | -19297 mdeg cm2/(dmol × res) | -3192 mdeg cm2/(dmol × res) | -7087 | -16105 | 68.94 | 83.45 |
| Ac-RWLRRWLRWWRR-NH2 [8c] | 6.2 | 3.15 | 12.5 | 6.35 | 6.2 | 3.15 | 12.5 | 6.35 | 12.5 | 6.35 | 30 | 15.25 | 41.20 | -13735 mdeg cm2/(dmol × res) | -19930 mdeg cm2/(dmol × res) | -8173 mdeg cm2/(dmol × res) | -5562 | -11757 | 40.49 | 58.99 |
| KWAKKWAKWWKK-NH2 [6b] | 100 | 59.77 | > 100 | > 59.77 | 100 | 59.77 | > 100 | > 59.77 | > 100 | > 59.77 | > 500 | > 298.85 | 28.98 | -14689 mdeg cm2/(dmol × res) | -20391 mdeg cm2/(dmol × res) | -7476 mdeg cm2/(dmol × res) | -7212 | -12915 | 49.10 | 63.33 |

Reference: article PMC9841524, “Structure-Based Rational Design of Small α-Helical Peptides with Broad-Spectrum Activity against Multidrug-Resistant Pathogens” (Journal of Medicinal Chemistry, 2022)
